Patent US7282507B2, “Indole derivatives as selective androgen receptor modulators (SARMS)” (Janssen Pharmaceutica N.V., priority 2004, dated 2007)
Where “and” joins values, the source holds several entries; their conditions need not be identical. Equal values may be shown once. Read-outs that look alike come from different tables or passages of the source.

Columns and labels:
[1] = target: T1, androgen receptor (rat ventral prostate cytosol) (Rattus norvegicus, UniProt P15207); test: Androgen Receptor Binding Using Rat Ventral Prostate Cytosol; details: for inhibition at 1 µM: read-out: % Inhibition, Androgen Receptor Binding (Rat Cytosol)
T1 construct: from tissue; host or cells: ventral prostate cytosol of castrated male Sprague Dawley or Wistar rats
T1 sequence (P15207 1-902): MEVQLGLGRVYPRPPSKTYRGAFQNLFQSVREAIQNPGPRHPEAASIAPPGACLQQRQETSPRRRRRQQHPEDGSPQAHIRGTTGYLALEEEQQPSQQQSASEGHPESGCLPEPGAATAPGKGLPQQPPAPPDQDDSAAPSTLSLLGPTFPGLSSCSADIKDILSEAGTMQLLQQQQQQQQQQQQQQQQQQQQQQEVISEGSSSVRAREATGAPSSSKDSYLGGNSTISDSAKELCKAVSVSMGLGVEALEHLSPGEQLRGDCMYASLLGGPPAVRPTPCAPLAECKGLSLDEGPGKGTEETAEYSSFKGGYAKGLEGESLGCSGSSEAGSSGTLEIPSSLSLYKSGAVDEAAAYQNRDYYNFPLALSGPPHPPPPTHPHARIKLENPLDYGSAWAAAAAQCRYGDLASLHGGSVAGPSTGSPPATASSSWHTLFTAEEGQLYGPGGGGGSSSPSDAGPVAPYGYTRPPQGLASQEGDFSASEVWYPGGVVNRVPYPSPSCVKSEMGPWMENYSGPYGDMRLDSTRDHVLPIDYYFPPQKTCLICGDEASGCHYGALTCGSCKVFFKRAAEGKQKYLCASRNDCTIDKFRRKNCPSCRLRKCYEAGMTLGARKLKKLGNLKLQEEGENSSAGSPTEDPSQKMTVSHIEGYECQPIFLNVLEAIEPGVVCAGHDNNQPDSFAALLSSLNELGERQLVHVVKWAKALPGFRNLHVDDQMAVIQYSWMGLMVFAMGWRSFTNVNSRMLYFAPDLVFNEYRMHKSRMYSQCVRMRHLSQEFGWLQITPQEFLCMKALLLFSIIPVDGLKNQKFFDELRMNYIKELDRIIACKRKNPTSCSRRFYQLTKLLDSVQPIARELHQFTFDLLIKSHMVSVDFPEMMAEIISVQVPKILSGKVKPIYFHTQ
In short: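 Cytosol from castrated rat ventral prostate was incubated overnight at 4°C with 0.5 nM [3H] tracer and compound in TED buffer (10 mM Tris-HCl pH 7.4, molybdate, EDTA, DTT, glycerol).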

[2] = target: T2, androgen receptor LBD (Panvera) (Rattus norvegicus, UniProt P15207); test: Androgen Receptor Filtration Binding Assay (PANVERA)
T2 construct: 5 pmol androgen receptor LBD (Panvera); purchased Panvera
T2 sequence (P15207 651-882 limits assumed): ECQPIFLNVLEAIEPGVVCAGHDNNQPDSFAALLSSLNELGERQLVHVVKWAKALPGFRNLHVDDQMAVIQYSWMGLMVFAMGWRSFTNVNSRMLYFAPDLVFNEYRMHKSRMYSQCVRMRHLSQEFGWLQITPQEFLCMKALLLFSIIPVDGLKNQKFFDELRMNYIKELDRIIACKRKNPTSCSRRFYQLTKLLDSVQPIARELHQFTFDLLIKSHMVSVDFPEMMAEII
Procedure: The assay was run on a 96 well plate with each well filled with a total reaction volume 150 μL, of a solution containing 5 pmol androgen receptor LBD (Panvera) or 30 μL of freshly prepared rat cytosol, 0.5 nM [^3H] […] (TED buffer contains 10 mM Tris.HCl pH 7.4, 1 mM sodium molybdate, 1.5 mM EDTA, 1 mM DTT and 10% (v/v) glycerol.)
On day one, the solution containing receptor, tracer and TED buffer was distributed into a 96 well plate. Diluted test compound or control vehicle was then added to individual wells and the plate incubated at 4° C. overnight.
On day two, to each well was then added 20 μL human γ-globulin (ICN 823102), prepared at 25 mg/ml in TE pH 8.0, and 55 μL 40% polyethylene glycol 8000 (J T Baker U222-08), prepared in TE pH 8.0. The plate was incubated at 4° C. for 60 minutes. During incubation, the harvester was rinsed with 10% PEG 8000, prepared in TE pH 8.0, and a GF/C Unifilter-96 was pre-wet with 10% PEG. The binding reaction was filtered, the retentate was washed three times with 10% PEG and dried under vacuum for a couple of minutes, then dried at 50° C. for 5 min and the plate was bottom sealed. Next, 25 μL of Microscint-20 (Packard) was added to the filter wells and the plate was top sealed. The plate wells were then counted on a TopCount (Packard).
Counts per well were measured and IC50s determined by linear regression.

[3] = read-out: IC50 (nM), Androgen Receptor Binding (Rat Cytosol)
[4] = [3H] R1881 tracer 0.5 nM, read-out: IC50 (nM), Androgen Receptor Binding (Panvera)
[5] = read-out: IC50 (nM), Androgen Receptor Binding (Panvera)

Structure (SMILES) | % Inhibition, Androgen Receptor Binding (Rat Cytosol) ([1]; Concentration 1000 nM) [%] | IC50 [2, 4] | inhibition at 1 µM ([1]; Concentration 1000 nM) [%] | also measured
CC(O)(Sc1ccc(Cl)c(Cl)c1)c1cc2cc([N+](=O)[O-])c(C(F)(F)F)cc2[nH]1 (racemic) [Compound 254] | 41 | 1020 nM and 920 nM | – | IC50 [1, 3]: 670 nM
CC(O)(Sc1ccccc1)c1cc2cc([N+](=O)[O-])c(C(F)(F)F)cc2[nH]1 (racemic) [Compound 258] | 35.4 | 2450 nM | – | –
CC(O)(Sc1ccc(Cl)cc1)c1cc2cc(C#N)c(C(F)(F)F)cc2[nH]1 (racemic) [Compound 261] | 14.05 | 1460 nM | – | –
CC(O)(c1cc2cc(C#N)c(C(F)(F)F)cc2[nH]1)S(=O)(=O)c1ccc(Cl)cc1 (racemic) [Compound 262] | −8.4 | > 10000 nM | – | –
CC(O)(CCl)c1cc2nc(C(F)(F)F)ccc2n1S(C)(=O)=O (stereo not drawn) [Compound 4] | – | 7600 nM | 10.8 | –
CS(=O)(=O)n1c(C2(O)CCN(C(=O)OCc3ccccc3)CC2)cc2cc(Cl)c(C(F)(F)F)cc21 [Compound 19] | −55 | > 100000 nM | – | –
O=C(OCc1ccccc1)N1CCC(O)(c2cc3cc(Cl)c(C(F)(F)F)cc3[nH]2)CC1 [Compound 20] | – | 23500 nM | -28.5 | –
CS(=O)(=O)n1c(C2(O)CCN(Cc3ccccc3)CC2)cc2cc(Cl)c(C(F)(F)F)cc21 [Compound 21] | −41.5 | > 10200 nM | – | –
OC1(c2cc3cc(Cl)c(C(F)(F)F)cc3[nH]2)CCN(Cc2ccccc2)CC1 [Compound 22] | – | > 9600 nM | – | IC50 [1, 3]: > 7700 nM
CS(=O)(=O)n1c(C2(O)CCNCC2)cc2cc(Cl)c(C(F)(F)F)cc21 [Compound 23] | −1.5 | 54000 nM | – | IC50 [1, 3]: 6000 nM
O=C(c1ccc(Cl)cc1)N1CCC(O)(c2cc3cc(Cl)c(C(F)(F)F)cc3[nH]2)CC1 [Compound 25] | −83.5 | 8800 nM | – | –
CC(O)(COC(=O)c1c(Cl)cccc1Cl)c1cc2cc([N+](=O)[O-])c(C(F)(F)F)cc2[nH]1 (stereo not drawn) [Compound 52] | – | 150 nM | 94.5 | IC50 [1, 3]: 79 nM
CC(O)(COC(=O)c1ccc(Cl)cc1)c1cc2cc(Cl)ccc2[nH]1 (stereo not drawn) [Compound 53] | – | 1970 nM | 9.75 | –
CC(O)(COC(=O)c1ccccc1Cl)c1cc2cc([N+](=O)[O-])c(C(F)(F)F)cc2[nH]1 (stereo not drawn) [Compound 54] | – | – | – | inhibition at 1 µM [1]: 5.5%; IC50 ([2]; IC50 (nM), Androgen Receptor Binding (Panvera)): 220 nM; IC50 [2, 5]: 465 nM
CC(O)(COC(=O)c1ccc(Cl)cc1)c1cc2cc([N+](=O)[O-])c(C(F)(F)F)cc2[nH]1 (stereo not drawn) [Compound 55] | – | 715 nM and 635 nM | 5.5 | IC50 [1, 3]: 180 nM
CC(O)(COC(=O)c1ccc(Cl)c(Cl)c1)c1cc2cc([N+](=O)[O-])c(C(F)(F)F)cc2[nH]1 (stereo not drawn) [Compound 56] | – | 485 nM and 610 nM | 38.5 | –
CC(O)(COC(=O)c1cccc(Cl)c1)c1cc2cc([N+](=O)[O-])c(C(F)(F)F)cc2[nH]1 (stereo not drawn) [Compound 58] | – | – | 79.5 | IC50 [2, 5]: 455 nM
CC(O)(COC(=O)c1ccccc1C(F)(F)F)c1cc2cc(N)c(C(F)(F)F)cc2[nH]1 (stereo not drawn) [Compound 59] | – | – | – | IC50 [1]: 220 nM; inhibition at 1 µM [1]: 67.5%; IC50 [2, 5]: 4100 nM
CC(O)(COC(=O)c1ccccc1C(F)(F)F)c1cc2cc(NC(=O)C(F)(F)F)c(C(F)(F)F)cc2[nH]1 (stereo not drawn) [Compound 60] | – | 6750 nM | 44.5 | IC50 [1, 3]: > 10000 nM
CC(O)(COC(=O)c1ccccc1)c1cc2cc(Cl)c(C(F)(F)F)cc2[nH]1 (stereo not drawn) [Compound 61] | – | 440 nM | 73 | –
CC(O)(COC(=O)c1ccc([N+](=O)[O-])cc1)c1cc2cc([N+](=O)[O-])c(C(F)(F)F)cc2[nH]1 (stereo not drawn) [Compound 63] | – | 1550 nM | 47.5 | –
CC(O)(COC(=O)c1ccccc1)c1cc2cc([N+](=O)[O-])c(C(F)(F)F)cc2[nH]1 (stereo not drawn) [Compound 64] | – | 815 nM | 61.5 | –
